Laboratory results from article PMC10141139 (2023).

What was measured:
[1] = tested on: Negative control (RNA, single strand) UUACCCUUACCCUUACCCUUACCCUUA; assay: ThT fluorescence light-up; details: pH 7.4, 34 °C, 5 µM RNA, 5 µM ThT highest tested
[2] = tested on: miniTERRA (RNA, G4) UUAGGGUUAGGGUUAGGGUUAGGGUUA; assay: ThT fluorescence light-up; details: pH 7.4, 34 °C, 5 µM RNA, 5 µM ThT
[3] = tested on: miniTERRA (RNA, G4) UUAGGGUUAGGGUUAGGGUUAGGGUUA; assay: fluorescent indicator displacement (ThT); details: pH 7.4, 34 °C, 5 µM RNA, 5 µM ThT displaced

binding ([1]; K+ (100 mM phosphate))	binding ([1]; Na+ (100 mM phosphate))	binding ([2]; K+ (100 mM phosphate))	binding ([2]; Na+ (100 mM phosphate))	IC50 ([3]; K+ (100 mM phosphate)) [µM]	IC50 ([3]; Na+ (100 mM phosphate)) [µM]	Structure (SMILES)
no	no	yes	yes			Cc1ccc2c(c1)sc(-c1ccc(N(C)C)cc1)[n+]2C
				17.23 ± 0.28	19.29 ± 0.25	NCCOc1cc(C(=O)Nc2cc(OCCN)c3ccccc3n2)nc(C(=O)Nc2cc(OCCN)c3ccccc3n2)c1
